Tests used:
[1] = tested on: microvascular endothelial cell; details: in vitro; cited from earlier work
T cells = details: cited from earlier work
MM cells = details: phosphocholine administration; cited from earlier work
[2] = cited from earlier work
[3] = tested on: myeloma patient-derived CD138 positive cells; assay: AnnexinV-PI cytometry, apoptosis/viability upon LPC supplementation; format: cell-based; details: 10 μM LPC, 24 h, vs vehicle; three patient samples
Description: (§1) FIG. 5. Effects of LPC supplementation on MM cells viability. A) Viability of myeloma cell lines MM.1S or OPM2 or three samples of myeloma patient-derived CD138 positive cells upon 24 h incubation with vehicle or 10 μM LPC, as fold change of annexinV-propidium iodide double negative cells relative to vehicle alone. B) MTT assay of OPM2 cells upon 72 h supplementation with LPC, one representative experiment (n=6). Y axis: median 570-655 optic density (O.D.); error bars: standard deviation; asterisks: p<0.05 at two-tailed t-test for paired samples.
(§2) Myeloma cell lines (OPM2 and MM.1S) were cultured in RPMI1640 media (Gibco), supplemented with glutamax (1 mM), penicillin (100 U/ml), and streptomycin (100 μg/ml). Primary MM cells were obtained by CD138 positive immunomagnetic selection (Miltenyi) from bone marrow mononuclear cells. CD138^+ cells were cultured in 10% FBS and IL-6 (2 ng/ml). Apoptosis was detected by AnnexinV-PI (BD) cytometry (AccuriC6 cytometer, analyzed with FCS-express). For MTT assays, OPM2 cells were cultured with or without 10 μM LPC and FCS, incubated with 5 mg/ml MTT (Sigma), dissolved with DMSO and measured for ABS at 570-655 nm with an ELISA reader (Biorad).

MM.1S myeloma cell line = assay: as above; format: cell-based; details: 10 μM LPC, 24 h, vs vehicle
Description: as §1, §2

OPM2 myeloma cell line = assay: as above; format: cell-based; details: 10 μM LPC, 24 h, vs vehicle
Description: as §1, §2

OPM2 cells = assay: MTT assay upon LPC supplementation; format: cell-based; details: 10 μM LPC, 72 h, with or without FCS; particularly upon serum starvation
Description: as §1, §2

C3f: fragment of the C3 complement factor, sequence SSKITHRIHWESASLLR; detected fragment HWESASLL (listed as Homo sapiens)
IGF1 signaling and microvascular endothelial cell proliferation [1]: actively modulate
TGFβ-1 secretion by endothelial cells [1]: enhance TGFβ-1 secretion

Nc1c(O)cccc1C(=O)CC(N)C(=O)O (stereo not shown) [3-hydroxykynurenine]
T cell depletion (T cells; in vitro and in vivo, transplanted mice): depleting in vitro and in vivo T cells
mismatched allograft tolerance (T cells; mouse, in vivo): promoting mismatched allograft tolerance

C[N+](C)(C)CCOP(=O)([O-])O [phosphocholine]
rescue of MM cells from the mevalonate pathway inhibitor apomine (MM cells): can rescue MM cells

CNCC(=O)O [Sarcosine, Sarcosine (N-Methylglycine)]
cancer-promoting in vitro activities [2]: induction of migration, invasiveness, and up-regulation of pathogenic receptors

lysophosphocholines [LPC]
apoptosis (annexinV-propidium iodide) [3]: decrease apoptosis
apoptosis (annexinV-propidium iodide) (MM.1S myeloma cell line): decrease apoptosis
apoptosis (annexinV-propidium iodide) (OPM2 myeloma cell line): decrease apoptosis
viability (MTT, 570-655 O.D.) (OPM2 cells): increase viability

— patent publication US20150285805A1, “BIOMARKERS OF MULTIPLE MYELOMA DEVELOPMENT AND PROGRESSION” (priority 2012, published 2015)
